From patent US20230365537A1, “POLO LIKE KINASE 4 INHIBITORS” (ORIC Pharmaceuticals, Inc., priority 2021, published 2023) come the findings set out here.

One test concerns CHP-134 cells. Description: CHP134 CellTiter-Glo (CTG) Assay. It is filed as cell-based. The note with it: Homo sapiens, CHP-134, 120 h, 5 days, viable cells by CellTiter-Glo. The essentials: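 CHP-134 cells seeded at 200 cells/well for 16 h, then given nine 1:3 serial dilutions in quadruplicate at 37° C, 5% CO2. Viable cells measured by CellTiter-Glo luminescence after 5 days; IC50 calculated from curves.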
(ATP-based viability assays read luminescence as a measure of living cells.)

Test [1] concerns the target human recombinant Aurora B (Homo sapiens (Human), UniProt Q96GD4). Kind of test: Aurora B Kinase Biochemical Assay (ADP-Glo). The note with it: ratio of Aurora B IC50 to PLK4 IC50 (selectivity). The essentials:
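Recombinant human Aurora B (20 nM in pH 7.5 HEPES buffer with MgCl2, EGTA, DTT, Brij-35, BSA) preincubated with compound 15 min at RT. ADP formed quantified by ADP-Glo luminescence after ATP depletion (40 min) and detection (30 min). IC50 from four-parameter non-linear regression.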
(In general: ADP-Glo turns the ADP formed in a reaction into a luminescent signal.)

For test [2], the target named is human recombinant Aurora A (Homo sapiens (Human), UniProt O14965). Kind of test: Aurora A Kinase Biochemical Assay (ADP-Glo). The following applies: ratio of Aurora A IC50 to PLK4 IC50 (selectivity).
human recombinant Aurora A, sequence (O14965 whole entry): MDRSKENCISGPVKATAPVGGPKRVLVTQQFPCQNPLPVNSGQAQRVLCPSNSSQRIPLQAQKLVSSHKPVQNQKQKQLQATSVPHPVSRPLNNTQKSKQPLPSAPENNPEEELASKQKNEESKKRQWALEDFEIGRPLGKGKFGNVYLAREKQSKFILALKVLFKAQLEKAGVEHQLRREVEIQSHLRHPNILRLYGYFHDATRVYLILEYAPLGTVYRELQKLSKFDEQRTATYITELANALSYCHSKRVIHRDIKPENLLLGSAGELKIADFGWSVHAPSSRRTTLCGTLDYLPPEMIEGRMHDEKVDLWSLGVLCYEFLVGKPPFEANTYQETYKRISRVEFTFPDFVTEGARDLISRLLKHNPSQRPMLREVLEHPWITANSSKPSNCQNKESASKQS
For another test, the target named is human recombinant PLK4 (Homo sapiens (Human), UniProt O00444). Description: PLK4 Biochemical Assay (ADP-Glo). The following applies: 0.5 nM PLK4, 8.0 µM ATP, 4.7 µM MBP, 6 hours at RT. The essentials:
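Recombinant human PLK4 (added at 1.0 nM) was preincubated 15 min at RT with compound in 50 mM HEPES pH 7.5, 10 mM MgCl2, 1 mM EGTA, 1 mM DTT, 0.01% Brij-35, 0.01% BSA. ADP formed was detected by ADP-Glo luminescence (40 min ATP depletion, 30 min detection). IC50 came from a four-parameter fit.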

human recombinant Aurora B, sequence (Q96GD4 whole entry): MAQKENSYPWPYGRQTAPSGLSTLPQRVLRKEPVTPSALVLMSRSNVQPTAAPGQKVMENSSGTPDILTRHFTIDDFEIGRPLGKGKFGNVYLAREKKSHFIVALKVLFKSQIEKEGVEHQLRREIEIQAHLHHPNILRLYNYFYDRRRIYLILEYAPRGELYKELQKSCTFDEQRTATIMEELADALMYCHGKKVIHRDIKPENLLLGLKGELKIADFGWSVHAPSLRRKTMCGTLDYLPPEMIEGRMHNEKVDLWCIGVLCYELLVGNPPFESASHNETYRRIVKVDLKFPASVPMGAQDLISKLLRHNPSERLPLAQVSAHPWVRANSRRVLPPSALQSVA
human recombinant PLK4, sequence (O00444 whole entry): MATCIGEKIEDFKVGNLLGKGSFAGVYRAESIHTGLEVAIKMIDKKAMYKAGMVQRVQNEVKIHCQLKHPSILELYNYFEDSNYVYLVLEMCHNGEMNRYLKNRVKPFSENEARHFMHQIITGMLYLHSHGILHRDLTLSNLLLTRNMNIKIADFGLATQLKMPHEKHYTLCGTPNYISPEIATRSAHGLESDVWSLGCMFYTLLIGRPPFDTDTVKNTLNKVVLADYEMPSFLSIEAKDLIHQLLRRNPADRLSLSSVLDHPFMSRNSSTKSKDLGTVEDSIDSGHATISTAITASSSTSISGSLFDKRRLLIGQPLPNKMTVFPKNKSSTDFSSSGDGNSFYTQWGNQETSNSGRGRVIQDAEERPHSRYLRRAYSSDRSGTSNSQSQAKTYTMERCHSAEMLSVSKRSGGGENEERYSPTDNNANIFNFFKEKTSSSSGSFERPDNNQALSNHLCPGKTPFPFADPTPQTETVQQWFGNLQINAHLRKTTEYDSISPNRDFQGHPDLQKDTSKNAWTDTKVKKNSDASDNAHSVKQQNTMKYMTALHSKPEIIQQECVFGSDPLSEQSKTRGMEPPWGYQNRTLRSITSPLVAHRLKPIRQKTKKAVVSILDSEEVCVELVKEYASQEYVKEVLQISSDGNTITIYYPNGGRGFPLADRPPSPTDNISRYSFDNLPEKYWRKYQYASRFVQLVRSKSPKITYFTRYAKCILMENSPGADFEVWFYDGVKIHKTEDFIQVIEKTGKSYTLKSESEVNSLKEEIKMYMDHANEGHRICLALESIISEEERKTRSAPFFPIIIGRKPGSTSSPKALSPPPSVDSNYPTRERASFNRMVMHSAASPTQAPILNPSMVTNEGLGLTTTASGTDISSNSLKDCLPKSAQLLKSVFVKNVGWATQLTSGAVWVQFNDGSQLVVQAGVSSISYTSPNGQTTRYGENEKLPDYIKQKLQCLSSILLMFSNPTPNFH

Take `COc1ccc2c(c1)[C@]1(C[C@H]1c1ccc3c(Nc4nc(C(C)C)nc(N5CCS(=O)(=O)CC5)c4OC)n[nH]c3c1)C(=O)N2` [Example 84, (1R,2S)-2-(3-((6-(1,1-dioxidothiomorpholino)-2-isopropyl-5-methoxypyrimidin-4-yl)amino)-1H-indazol-6-yl)-5′-methoxyspiro[cyclopropane-1,3′-indolin]-2′-one]: the values for the IC50 in the test on CHP-134 cells and on human recombinant PLK4 were 395 nM and 1.28 nM, respectively. Moreover, the “[Aurora B IC50 (nM)]/[PLK4 IC50 (nM)]” value in test [1] was 3151.017. For the same molecule, in test [2], the “[Aurora A IC50 (nM)]/[PLK4 IC50 (nM)]” value amounted to 39123.63.

Consider `COc1ccc2c(c1)[C@]1(C[C@H]1c1ccc3c(Nc4nc(C(C)C)nc(N5CCOCC5)c4OC)n[nH]c3c1)C(=O)N2` [Example 85, (1R,2S)-5′-methoxy-2-(3-{[5-methoxy-6-(morpholin-4-yl)-2-(propan-2-yl)pyrimidin-4-yl]amino}-1H-indazol-6-yl)spiro[cyclopropane-1,3′-indol]-2′(1′H)-one], for which the IC50 with CHP-134 cells was found to be 107 nM; at human recombinant PLK4 it was 1.91 nM. Also, in test [1], the “[Aurora B IC50 (nM)]/[PLK4 IC50 (nM)]” value is 3067.539. For the same molecule, the “[Aurora A IC50 (nM)]/[PLK4 IC50 (nM)]” value in test [2] stood at 5554.974.

`COc1ccc2c(c1)[C@]1(C[C@H]1c1ccc3c(Nc4cc(C)ncc4OC)n[nH]c3c1)C(=O)N2` [Example 86, (1R,2S)-5′-methoxy-2-{3-[(5-methoxy-2-methylpyridin-4-yl)amino]-1H-indazol-6-yl}spiro[cyclopropane-1,3′-indol]-2′(1′H)-one]: the IC50 in the test on CHP-134 cells worked out at 459 nM; at human recombinant PLK4, 21.2 nM. The “[Aurora B IC50 (nM)]/[PLK4 IC50 (nM)]” value in test [1] came out at 669.3396. In addition, in test [2], the “[Aurora A IC50 (nM)]/[PLK4 IC50 (nM)]” value is 1414.623.

As for `COc1ccc2c(c1)[C@]1(C[C@H]1c1ccc3c(Nc4nc(C)ncc4OC)n[nH]c3c1)C(=O)N2` [Example 87, (1R,2S)-5′-methozy-2-{3-[(5-methoxy-2-methylpyrimidin-4-yl)amino]-1H-indazol-6-yl}spiro[cyclopropane-1,3′-indol]-2′(1′H)-one], the IC50 came out at 235 nM in the test on CHP-134 cells and 1.58 nM at human recombinant PLK4. The “[Aurora B IC50 (nM)]/[PLK4 IC50 (nM)]” value in test [1] was determined as 133.9241. Moreover, the “[Aurora A IC50 (nM)]/[PLK4 IC50 (nM)]” value in test [2] amounted to 973.4177.

With `COc1ccc2c(c1)[C@]1(C[C@H]1c1ccc3c(Nc4nc(C)ccc4OC)n[nH]c3c1)C(=O)N2` [Example 88, (1R,2S)-5′-methoxy-2-{3-[(3-methoxy-6-methylpyridin-2-yl)amino]-1H-indazol-6-yl}spiro[cyclopropane-1,3′-indol]-2′(1′H)-one], the IC50 in the test with CHP-134 cells was determined as 1810 nM; on human recombinant PLK4, 2.67 nM. For the same molecule, the “[Aurora B IC50 (nM)]/[PLK4 IC50 (nM)]” value in test [1] is on record as 44.7979. The “[Aurora A IC50 (nM)]/[PLK4 IC50 (nM)]” value in test [2] was determined as 1997.754.

In the case of `COc1ccc2c(c1)[C@]1(C[C@H]1c1ccc3c(Nc4cc(C)cnc4OC)n[nH]c3c1)C(=O)N2` [Example 89, (1R,2S)-5′-methoxy-2-{3-[(2-methoxy-5-methylpyridin-3-yl)amino]-1H-indazol-6-yl}spiro[cyclopropane-1,3′-indol]-2′(1′H)-one], the 50% inhibitory concentration (IC50) turned out to be 10000 nM in the test with CHP-134 cells and 2.32 nM on human recombinant PLK4. Further, the “[Aurora B IC50 (nM)]/[PLK4 IC50 (nM)]” value in test [1] was 314.3289. Moreover, the “[Aurora A IC50 (nM)]/[PLK4 IC50 (nM)]” value in test [2] came out at 1736.729.

In the case of `COc1ccc2c(c1)[C@]1(C[C@H]1c1ccc3c(Nc4cc(C5CC5)nn4C)n[nH]c3c1)C(=O)N2` [Example 91, (1R,2S)-2-{3-[(3-cyclopropyl-1-methyl-1H-pyrazol-5-yl)amino]-1H-indazol-6-yl}-5′-methoxyspiro[cyclopropane-1,3′-indol]-2′(1′H)-one], the IC50 in the test with CHP-134 cells was 3200 nM; on human recombinant PLK4 it was 4.02 nM. The “[Aurora B IC50 (nM)]/[PLK4 IC50 (nM)]” value in test [1] was 79.87. In addition, the “[Aurora A IC50 (nM)]/[PLK4 IC50 (nM)]” value in test [2] is listed as 436.427.

As for `COc1ccc2c(c1)[C@]1(C[C@H]1c1ccc3c(Nc4ncc(N5CCOCC5)nc4OC)n[nH]c3c1)C(=O)N2` [Example 94, (1R,2S)-5′-methoxy-2-(3-{[3-methoxy-5-(morpholin-4-yl)pyrazin-2-yl]amino}-1H-indazol-6-yl)spiro[cyclopropane-1,3′-indol]-2′(1′H)-one], the half-maximal inhibitory concentration (IC50) in the test on CHP-134 cells worked out at 4600 nM; at human recombinant PLK4 it was 5.61 nM. Also, the “[Aurora B IC50 (nM)]/[PLK4 IC50 (nM)]” value in test [1] was found to be 41.732. Also, the “[Aurora A IC50 (nM)]/[PLK4 IC50 (nM)]” value in test [2] is 533.856.

In the case of `COc1ccc2c(c1)[C@]1(C[C@H]1c1ccc3c(Nc4ccnc(N5CCOCC5)c4OC)n[nH]c3c1)C(=O)N2` [Example 95, (1R,2S)-5′-methoxy-2-(3-{[3-methoxy-2-(morpholin-4-yl)pyridin-4-yl]amino}-1H-induzol-6-yl)spiro[cyclopropane-1,3′-indol]-2′(1′H)-one], the IC50 in the test with CHP-134 cells came to 319 nM; at human recombinant PLK4, 1.31 nM. Also, the “[Aurora B IC50 (nM)]/[PLK4 IC50 (nM)]” value in test [1] is 54.26. Also, the “[Aurora A IC50 (nM)]/[PLK4 IC50 (nM)]” value in test [2] is given as 2386.677.

As to `COc1ccc2c(c1)[C@]1(C[C@H]1c1ccc3c(Nc4cc(C)ncc4Cl)n[nH]c3c1)C(=O)N2` [Example 96, (1R,2S)-2-{3-[(5-chloro-2-methylpyridin-4-yl)amino]-1H-indazol-6-yl}-5′-metboxyspiro[cyclopropane-l,3′-indol]-2′(1′H)-one], the IC50 in the test on CHP-134 cells turned out to be 56.6 nM; on human recombinant PLK4, 11.3 nM. Moreover, the “[Aurora B IC50 (nM)]/[PLK4 IC50 (nM)]” value in test [1] came out at 351.8943. The “[Aurora A IC50 (nM)]/[PLK4 IC50 (nM)]” value in test [2] was found to be 511.3656.

`COc1ccc2c(c1)[C@]1(C[C@H]1c1ccc3c(Nc4nc(N5CCOCC5)ncc4OC)n[nH]c3c1)C(=O)N2` [Example 97, (lR,2S)-5′-methoxy-2-(3-{[5-methoxy-2-(morpholin-4-yl)pyrimidin-4-yl]amino}-1H-indazol-6-yl)spiro[cyclopropane-1,3′-indol]-2′(1′H)-one]: the values for the concentration for half-maximal inhibition (IC50) in the test with CHP-134 cells and on human recombinant PLK4 were 222 nM and 1.14 nM, respectively. In addition, the “[Aurora B IC50 (nM)]/[PLK4 IC50 (nM)]” value in test [1] stood at 520.2809. The “[Aurora A IC50 (nM)]/[PLK4 IC50 (nM)]” value in test [2] is 309.2186.

As for `COc1ccc2c(c1)[C@]1(C[C@H]1c1ccc3c(Nc4nc(C)ncc4Cl)n[nH]c3c1)C(=O)N2` [Example 98, (1R,2S)-2-{3-[(5-chloro-2-methylpyrimidin-4-yl)amino]-1H-indazol-6-yl)-5′-methoxyspiro[cyclopropane-1,3′-indol]-2′(1′H)-one], the IC50 came out at 65.8 nM in the test with CHP-134 cells and 7.55 nM on human recombinant PLK4. Besides, the “[Aurora B IC50 (nM)]/[PLK4 IC50 (nM)]” value in test [1] is listed as 305.5335. For the same molecule, in test [2], the “[Aurora A IC50 (nM)]/[PLK4 IC50 (nM)]” value is 787.0003.

With `COc1ccc2c(c1)[C@]1(C[C@H]1c1ccc3c(Nc4nc(N5CCOCC5)cnc4OC)n[nH]c3c1)C(=O)N2` [Example 99, (1R,2S)-5′-methoxy-2-(3-{[3-methoxy-6-(morpholin-4-yl)pyrazin-2-yl]amino)-1H-indazol-6-yl)spiro[cyclopropane-1,3′-indol]-2′(1′H)-one], the IC50 in the test on CHP-134 cells was 565 nM; at human recombinant PLK4, 5.8 nM. For the same molecule, the “[Aurora B IC50 (nM)]/[PLK4 IC50 (nM)]” value in test [1] came to 129.9724. The “[Aurora A IC50 (nM)]/[PLK4 IC50 (nM)]” value in test [2] came to 155.05.

Regarding `COc1ccc2c(c1)[C@]1(C[C@H]1c1ccc3c(Nc4nc(C5COC5)cnc4OC)n[nH]c3c1)C(=O)N2` [Example 100, (1R,2S)-5′-methoxy-2-(3-{[3-methoxy-6-(oxetan-3-yl)pyrazin-2-yl]amino}-1H-indazol-6-yl)spiro[cyclopropane-1,3′-indol]-2′(l′H)-one], the IC50 in the test on CHP-134 cells was determined as 567 nM; on human recombinant PLK4 it was 1.73 nM. In addition, the “[Aurora B IC50 (nM)]/[PLK4 IC50 (nM)]” value in test [1] is 230.4498. Moreover, the “[Aurora A IC50 (nM)]/[PLK4 IC50 (nM)]” value in test [2] worked out at 382.0069.

In the case of `COc1ccc2c(c1)[C@]1(C[C@H]1c1ccc3c(Nc4cc(C(C)C)nnc4OC)n[nH]c3c1)C(=O)N2` [Example 101, (1R,2S)-5′-methoxy-2-(3-{[3-methoxy-6-(propan-2-yl)pyridazin-4-yl]amino}-1H-indazol-6-yl)spiro[cyclopropane-1,3′-indol]-2′(1′H)-one], the results for the IC50 with CHP-134 cells and at human recombinant PLK4 were 2290 nM and 11.3 nM, respectively. Also, the “[Aurora B IC50 (nM)]/[PLK4 IC50 (nM)]” value in test [1] is given as 1002.648. Moreover, in test [2], the “[Aurora A IC50 (nM)]/[PLK4 IC50 (nM)]” value was 1271.845.

Turning to `COc1ccc2c(c1)[C@]1(C[C@H]1c1ccc3c(Nc4ncnc(N5CC(O)C5)c4Cl)n[nH]c3c1)C(=O)N2C` [Example 107, (1R,2S)-2-(3-{[5-chloro-6-(3-hydroxyazetidin-1-yl)pyrimidin-4-yl]amino}-1H-indazol-6-yl)-5′-methoxy-1′-methylspiro[cyclopropane-1,3′-indol]-2′(1′H)-one], the IC50 worked out at 730 nM with CHP-134 cells and 5.7 nM on human recombinant PLK4. Moreover, the “[Aurora B IC50 (nM)]/[PLK4 IC50 (nM)]” value in test [1] was found to be 174.4215. The “[Aurora A IC50 (nM)]/[PLK4 IC50 (nM)]” value in test [2] is 1455.295.

Regarding `CCN1C(=O)[C@@]2(C[C@H]2c2ccc3c(Nc4ncnc(N5CC(O)C5)c4Cl)n[nH]c3c2)c2cc(OC)ccc21` [Example 108, (1R,2S)-2-(3-{[5-chloro-6-(3-hydroxyazetidin-1-yl)pyrimidin-4-yl]amino}-1H-indazol-6-yl)-1′-ethyl-5′-methoxyspiro[cyclopropane-1,3′-indol]-2′(1′H)-one], the values for the IC50 with CHP-134 cells and at human recombinant PLK4 were 1090 nM and 4.37 nM, respectively. Further, in test [1], the “[Aurora B IC50 (nM)]/[PLK4 IC50 (nM)]” value was found to be 230.6459. Also, the “[Aurora A IC50 (nM)]/[PLK4 IC50 (nM)]” value in test [2] is given as 3889.143.

What is called IC50 is the concentration needed to halve the response being measured.
